Assay results as given in US20260098283A1, “In Vitro Bioproduction of Specific Chain Legnth Poly(hydroxyalkanoate) Monomers” (Kimberly-Clark Worldwide, Inc., priority 2022, published 2026).
Each block holds one compound with its values, some of them ahead of it.

Tests used:
[1] = tested on: fatty acid-CoA ligase QKS23364; experiment: substrate chain length preference of fatty acid-CoA ligase QKS23364; format: biochemical, Halomonas titanicae; settings: for percent activity: substrate chain length preference distribution, percent activity vs. carbon length, enzyme QKS23364
Source text: (§1) • Sources: Enzyme sequences were identified by searching the NCBI Protein or Identical Protein Group databases. For this example, it was decided to focus primarily on the thermohalophile Thermobifida halotolerans. Sequences and accession numbers for the enzymes used in this work are listed in Appendix I. All general laboratory chemicals and long chain fatty acids were purchased from Millipore-Sigma Chemical Company (St. Louis, MO). Cloning materials and protein purification supplies were from New England Biolabs (Beverly, MA). • Enzyme cloning: The amino acid sequence for each enzyme was searched for potential signal sequences. If one was present it was removed from the sequence. A histine tag and a TEV protease cleavage sequence were added to the N-ter of each enzyme. This sequence was MHHHHHHENLYFQS to assist in purification (via an NTA-Ni column) and subsequent removal of the hexahistidine tag. Each recombinant enzyme began with an N-ter serine residue as TEV protease cleaves after the glutamine (Q). Each amino acid sequence was back translated to an E. coli codon optimized nucleic acid sequence and was synthesized using standard laboratory gene synthesis techniques. The insert was digested with Nde I and cloned into the similarly digested expression vector pET11d. Final DNA sequences were verified by DNA sequencing. Expression plasmids were used to transform E. coli Origami2 (DE3) for expression. • Protein expression and purification: A single colony was used to inoculate 5.0 mL of LBamp media ([…] ampicillin concentration). Bacteria were grown for 12 hours at 37° C. and this culture was used to inoculate 500 mL of LBamp media. This culture was grown at 37° C. until the optical density (600 nm) reached 0.4 (typically in 3-5 hours). Protein expression was induced by the addition of IPTG to a final concentration of 1 mM. Cells were grown for 12 hours at 37° C. Cells were harvested by centrifugation at 5,000×g for 20 minutes, and frozen at −80° C. until use (minimal time frozen was 24 hours). Cells were thawed on ice and were resuspended in Buffer A (0.5 M NaCl, 20 mM Tris-HCl, 5 mM imidazole, pH 7.9) (typically 1 mL per gram of cells). Cells were disrupted via two passes through a French Press followed by centrifugation at 30,000×g for 30 minutes. The crude extract was mixed with an equal volume of charged His-Bind resin slurry and the mixture was poured into 5 cm×4.9 cc column. The column was washed with 10 column volumes of wash buffer (0.5 M NaCl, 20 mM Tris-HCl, 60 mM imidazole, pH 7.9) at a flow rate of 0.2 mL/min. Enzyme was eluted from the column with the addition of 3 column volumes of 0.5 M NaCl, 20 mM Tris-HCl, 1.0 M imidazole, pH 7.9. Fractions were collected (1.0 mL). Fractions containing enzyme were pooled after analysis by SDS PAGE. The pooled fractions were applied to a 70 cmp×4.9 cc Sephadex G-75 column (10 mM Tris-HCl, PH 7.5, 1 mM EDTA). Fractions containing homogeneous protein were pooled (after inspection by SDS PAGE) and concentrated to 5 mg/ml via Centricon filters. Enzyme was stored frozen at −20° C. until use. The TRX-histidine tag region was removed from the enzymes using TEV protease. Protein was diluted to 1.0 mg/ml into 10 mM Tris-HCl, pH 7.5, 25 mM NaCl. 100 U of TEV protease was added per mg of enzyme (approximate ratio of 1:100 (w/w). The reaction was allowed to proceed for 16 h at 4° C. The mixture was passed over a charged nickel column. One column volume of eluent was collected representing purified tag-free enzyme. • Enzyme assays: The formation of long-chain fatty acid-CoA was monitored by measuring the amount of pyrophosphate released from the reaction using the MAK 168 pyrophosphate assay kit from Millipore-Sigma Chemical Co (St. Louis, MO). The formation of PHA was monitored by the increase in optical density (650 nm) as a function of time in a Molecular Devices SpectraMax 5 spectrometer. The assay measures the increase in light scattering due to precipitating PHA formed during the reaction. […]

[2] = tested on: fatty acid-CoA ligase QKS24074; experiment: substrate chain length preference of fatty acid-CoA ligase QKS24074; format: biochemical, Halomonas titanicae; settings: for percent activity: substrate chain length preference distribution, percent activity vs. carbon length, enzyme QKS24074
Source text: as §1

[3] = tested on: fatty acid-CoA ligase QKS26753; experiment: substrate chain length preference of fatty acid-CoA ligase QKS26753; format: biochemical, Halomonas titanicae; settings: for percent activity: substrate chain length preference distribution, percent activity vs. carbon length, enzyme QKS26753
Source text: as §1

[4] = tested on: overall 5-step reaction from long-chain fatty acid CoA to PHA; experiment: formation of precipitating PHA, optical density 650 nm, Example 1; format: biochemical, Thermobifida halotolerans; settings: Example 1, FIG. 8; fatty acid as starting material
Source text: as §1, with “Cells were thawed on ice and were resuspended in Buffer A (0.5 M NaCl, 20 mM Tris-HCl, 5 mM imidazole, pH 7.9) (typically 1 mL per gram of cells). Cells were disrupted via two passes through a French Press followed by centrifugation at 30,000×g for 30 minutes. The crude extract was mixed with an equal volume of charged His-Bind resin slurry and the mixture was poured into 5 cm×4.9 cc column. The column was washed with 10 column volumes of wash buffer (0.5 M NaCl, 20 mM Tris-HCl, 60 mM imidazole, pH 7.9) at a flow rate of 0.2 mL/min. Enzyme was eluted from the column with the addition of 3 column volumes of 0.5 M NaCl, 20 mM Tris-HCl, 1.0 M imidazole, pH 7.9. Fractions were collected (1.0 mL). Fractions containing enzyme were pooled after analysis by SDS PAGE. The pooled fractions were applied to a 70 cmp×4.9 cc Sephadex G-75 column (10 mM Tris-HCl, PH 7.5, 1 mM EDTA). Fractions containing homogeneous protein were pooled (after inspection by SDS PAGE) and concentrated to 5 mg/ml via Centricon filters. Enzyme was stored frozen at −20° C. until use. The TRX-histidine tag region was removed from the enzymes using TEV protease. Protein was diluted to 1.0 mg/ml into 10 mM Tris-HCl, pH 7.5, 25 mM NaCl.” left out, “spectrometer.” for “spectrometer. The assay measures the increase in light scattering due to precipitating PHA formed during the reaction.”

[5] = tested on: fatty acid-CoA ligase QKS25406; experiment: substrate chain length preference of fatty acid-CoA ligase QKS25406; format: biochemical, Halomonas titanicae; settings: for percent activity: substrate chain length preference distribution, percent activity vs. carbon length, enzyme QKS25406
Source text: as §1

[6] = tested on: fatty acid-CoA ligase QKS24113; experiment: substrate chain length preference of fatty acid-CoA ligase QKS24113; format: biochemical, Halomonas titanicae; settings: for percent activity: substrate chain length preference distribution, percent activity vs. carbon length, enzyme QKS24113
Source text: as §1

[7] = tested on: long-chain fatty acid CoA ligase; experiment: long-chain fatty acid CoA ligase reaction time course, Example 1 (fatty acid loss, pyrophosphate formation); format: biochemical, Thermobifida halotolerans; settings: Example 1, FIG. 6/7; single fatty acid substrate
Source text: (§2) • Sources: Enzyme sequences were identified by searching the NCBI Protein or Identical Protein Group databases. For this example, it was decided to focus primarily on the thermohalophile Thermobifida halotolerans. Sequences and accession numbers for the enzymes used in this work are listed in Appendix I. All general laboratory chemicals and long chain fatty acids were purchased from Millipore-Sigma Chemical Company (St. Louis, MO). Cloning materials and protein purification supplies were from New England Biolabs (Beverly, MA). • Enzyme cloning: The amino acid sequence for each enzyme was searched for potential signal sequences. If one was present it was removed from the sequence. […] 100 U of TEV protease was added per mg of enzyme (approximate ratio of 1:100 (w/w). The reaction was allowed to proceed for 16 h at 4° C. The mixture was passed over a charged nickel column. One column volume of eluent was collected representing purified tag-free enzyme. • Enzyme assays: The formation of long-chain fatty acid-CoA was monitored by measuring the amount of pyrophosphate released from the reaction using the MAK 168 pyrophosphate assay kit from Millipore-Sigma Chemical Co (St. Louis, MO). The formation of PHA was monitored by the increase in optical density (650 nm) as a function of time in a Molecular Devices SpectraMax 5 spectrometer. […]

[8] = tested on: five-step reaction from long-chain fatty acid CoA to PHA; experiment: formation of precipitating PHA, optical density 650 nm, Example 5; format: biochemical, Halomonas titanicae; settings: Example 5, FIG. 22; fatty acid as starting material
Source text: as §2, with “sequence. A histine tag and a TEV protease cleavage sequence were added to the N-ter of each enzyme. This sequence was MHHHHHHENLYFQS to assist in purification (via an NTA-Ni column) and subsequent removal of the hexahistidine tag. Each recombinant enzyme began with an N-ter serine residue as TEV protease cleaves after the glutamine (Q). Each amino acid sequence was back translated to an E. coli codon optimized nucleic acid sequence and was synthesized using standard laboratory gene synthesis techniques. The insert was digested with Nde I and cloned into the similarly digested expression vector pET11d. Final DNA sequences were verified by DNA sequencing.” for “sequence.”

[9] = tested on: fatty acid-CoA ligase; experiment: long-chain fatty acid CoA ligase reaction time course, Example 5; format: biochemical, Halomonas titanicae; settings: Example 5, FIG. 20/21; 1.0 M NaCl, pH 7.5
Source text: as §2, with “sequence. A histine tag and a TEV protease cleavage sequence were added to the N-ter of each enzyme. This sequence was MHHHHHHENLYFQS to assist in purification (via an NTA-Ni column) and subsequent removal of the hexahistidine tag. Each recombinant enzyme began with an N-ter serine residue as TEV protease cleaves after the glutamine (Q). Each amino acid sequence was back translated to an E. coli codon optimized nucleic acid sequence and was synthesized using standard laboratory gene synthesis techniques. The insert was digested with Nde I and cloned into the similarly digested expression vector pET11d. Final DNA sequences were verified by DNA sequencing.” for “sequence.”

[10] = tested on: WP_068692787 enzyme (long chain fatty acid-CoA synthetase); experiment: formation of the CoA moiety followed by pyrophosphate formation, Example 4; format: biochemical, Thermobifida halotolerans; settings: Example 4, FIG. 16; result in words
Source text: as §2

[11] = tested on: WP_068689753 enzyme (long chain fatty acid-CoA synthetase); experiment: formation of the CoA moiety followed by pyrophosphate formation, Example 3; format: biochemical, Thermobifida halotolerans; settings: Example 3, FIG. 13; sole substrate
Source text: as §2

percent activity [1]: 100%
percent activity [2]: 0.0%
percent activity [3]: 5.6%
percent activity [5]: 100%
percent activity [6]: 100%
Structure (SMILES): CCCCCCCCCCCCCCCCCCCC(=O)O [C18, arachidic acid]
duration of linear formation of precipitating PHA after the lag [4]: 150 min
lag before measurable increase in optical density (650 nm) [4]: approximately 50 minutes
time to completion of the long-chain fatty acid CoA ligase reaction [7]: complete within two hours

Structure (SMILES): CCCCCCCCCCCCCCCCCCCCCC(=O)O [C20, behenic acid]
suitability of the enzyme for the fatty acid (optimal / possible / not possible) ([1]; result in words): much lower activity
percent activity [1]: 46.5%
duration of linear formation of precipitating PHA after the lag [8]: 100 min
time to completion of the long-chain fatty acid CoA ligase reaction [9]: complete within two hours
suitability of the enzyme for the fatty acid (optimal / possible / not possible) ([2]; result in words): not possible enzymes
percent activity [2]: 0.0%
suitability of the enzyme for the fatty acid (optimal / possible / not possible) ([3]; result in words): not possible enzymes
percent activity [3]: 0.0%
suitability of the enzyme for the fatty acid (optimal / possible / not possible) ([5]; result in words): optimal enzymes
percent activity [5]: 100%
suitability of the enzyme for the fatty acid (optimal / possible / not possible) ([6]; result in words): optimal enzymes
percent activity [6]: 100%

Structure (SMILES): CCCCCCC(=O)O [Heptanoic acid]
conversion into the CoA moiety [10]: readily converted

Structure (SMILES): CCCCCCCCCCCCCCCCCCCCCCCCCC(=O)O [hexacosanoic acid]
completion of formation of the CoA moiety [11]: 240 min
lag period of formation of the CoA moiety [11]: 50 min
